Results as given in patent US20240269139A1, “COMPOUNDS FOR TARGETED PROTEIN DEGRADATION OF KINASES” (DANA-FARBER CANCER INSTITUTE, INC., priority 2020, published 2024).
Where two headings read alike, the source gives them in different places.

Key:
Format in all cases: cell-based
[1] = biological target: T1, protein kinases (human kinome) (Homo sapiens, UniProt Q9UEE5); conditions: STK17A Q9UEE5
T1 sequence (Q9UEE5 1-414): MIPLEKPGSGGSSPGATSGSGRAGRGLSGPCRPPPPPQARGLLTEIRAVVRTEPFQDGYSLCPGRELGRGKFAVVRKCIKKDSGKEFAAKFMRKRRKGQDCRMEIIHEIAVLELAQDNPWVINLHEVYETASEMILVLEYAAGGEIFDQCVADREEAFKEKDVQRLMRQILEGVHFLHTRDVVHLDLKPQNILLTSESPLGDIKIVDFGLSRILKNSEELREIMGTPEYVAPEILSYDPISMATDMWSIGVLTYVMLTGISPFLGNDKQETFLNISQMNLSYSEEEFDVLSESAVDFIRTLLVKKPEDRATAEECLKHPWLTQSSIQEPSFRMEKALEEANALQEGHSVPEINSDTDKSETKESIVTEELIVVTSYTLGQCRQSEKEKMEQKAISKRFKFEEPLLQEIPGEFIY

[2] = biological target: protein kinases (human kinome) (Homo sapiens, UniProt Q8NI60); conditions: experiment wp137
[3] = biological target: protein kinases (human kinome) (Homo sapiens, UniProt Q8TDR2)
[4] = biological target: T2, protein kinases (human kinome) (Homo sapiens, UniProt Q8TAS1)
T2 sequence (Q8TAS1 1-419): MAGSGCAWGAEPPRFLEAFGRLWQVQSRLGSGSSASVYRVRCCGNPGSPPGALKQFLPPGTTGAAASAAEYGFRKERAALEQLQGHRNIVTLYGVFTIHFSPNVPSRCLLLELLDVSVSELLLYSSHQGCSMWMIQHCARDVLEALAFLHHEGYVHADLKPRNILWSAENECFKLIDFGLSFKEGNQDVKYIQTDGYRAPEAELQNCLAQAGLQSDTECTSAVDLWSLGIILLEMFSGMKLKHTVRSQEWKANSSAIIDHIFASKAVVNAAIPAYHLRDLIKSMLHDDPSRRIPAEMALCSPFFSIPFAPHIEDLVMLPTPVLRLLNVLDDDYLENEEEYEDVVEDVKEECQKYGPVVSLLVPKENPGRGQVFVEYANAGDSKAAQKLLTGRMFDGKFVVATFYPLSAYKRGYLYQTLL

[5] = biological target: protein kinases (human kinome) (Homo sapiens, UniProt Q13233)
[6] = biological target: T3, protein kinases (human kinome) (Homo sapiens, UniProt P33981); conditions: experiment wp076; for logFC TTK: Accession P33981
T3 sequence (P33981 1-857): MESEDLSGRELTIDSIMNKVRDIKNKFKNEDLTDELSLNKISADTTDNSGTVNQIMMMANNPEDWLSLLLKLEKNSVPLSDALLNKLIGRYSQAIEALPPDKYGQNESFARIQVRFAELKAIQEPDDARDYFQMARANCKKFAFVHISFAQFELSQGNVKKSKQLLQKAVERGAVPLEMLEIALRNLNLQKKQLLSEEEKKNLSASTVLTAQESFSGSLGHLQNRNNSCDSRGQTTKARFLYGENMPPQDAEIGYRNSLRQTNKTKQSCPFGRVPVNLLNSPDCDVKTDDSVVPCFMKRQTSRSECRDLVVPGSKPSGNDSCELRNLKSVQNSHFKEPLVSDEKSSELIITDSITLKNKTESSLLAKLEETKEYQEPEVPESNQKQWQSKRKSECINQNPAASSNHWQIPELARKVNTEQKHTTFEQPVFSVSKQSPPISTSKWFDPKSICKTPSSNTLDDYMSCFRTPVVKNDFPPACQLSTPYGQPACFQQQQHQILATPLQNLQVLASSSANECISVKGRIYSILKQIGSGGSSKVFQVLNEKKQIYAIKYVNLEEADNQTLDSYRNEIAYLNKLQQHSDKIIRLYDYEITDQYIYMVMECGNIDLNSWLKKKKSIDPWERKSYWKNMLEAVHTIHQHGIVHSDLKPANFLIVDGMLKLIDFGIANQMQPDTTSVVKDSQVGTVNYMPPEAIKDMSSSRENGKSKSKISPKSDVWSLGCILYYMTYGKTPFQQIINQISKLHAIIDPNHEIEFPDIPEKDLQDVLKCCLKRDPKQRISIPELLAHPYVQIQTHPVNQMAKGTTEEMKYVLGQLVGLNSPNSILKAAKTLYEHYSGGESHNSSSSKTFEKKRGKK

[7] = biological target: protein kinases (human kinome) (Homo sapiens, UniProt Q9HBH9)
[8] = Accession Q8TDR2, experiment wp131, direction down
[9] = STK35 (Q8TDR2), experiment wp131
[10] = Accession Q8TAS1, experiment wp076, direction down
[11] = UHMK1 (Q8TAS1), experiment wp076
[12] = Accession Q13233, experiment wp076, direction down
[13] = MAP3K1 (Q13233), experiment wp076

Chain of protein kinases (human kinome) (Homo sapiens, UniProt Q13233) (Q13233 whole entry): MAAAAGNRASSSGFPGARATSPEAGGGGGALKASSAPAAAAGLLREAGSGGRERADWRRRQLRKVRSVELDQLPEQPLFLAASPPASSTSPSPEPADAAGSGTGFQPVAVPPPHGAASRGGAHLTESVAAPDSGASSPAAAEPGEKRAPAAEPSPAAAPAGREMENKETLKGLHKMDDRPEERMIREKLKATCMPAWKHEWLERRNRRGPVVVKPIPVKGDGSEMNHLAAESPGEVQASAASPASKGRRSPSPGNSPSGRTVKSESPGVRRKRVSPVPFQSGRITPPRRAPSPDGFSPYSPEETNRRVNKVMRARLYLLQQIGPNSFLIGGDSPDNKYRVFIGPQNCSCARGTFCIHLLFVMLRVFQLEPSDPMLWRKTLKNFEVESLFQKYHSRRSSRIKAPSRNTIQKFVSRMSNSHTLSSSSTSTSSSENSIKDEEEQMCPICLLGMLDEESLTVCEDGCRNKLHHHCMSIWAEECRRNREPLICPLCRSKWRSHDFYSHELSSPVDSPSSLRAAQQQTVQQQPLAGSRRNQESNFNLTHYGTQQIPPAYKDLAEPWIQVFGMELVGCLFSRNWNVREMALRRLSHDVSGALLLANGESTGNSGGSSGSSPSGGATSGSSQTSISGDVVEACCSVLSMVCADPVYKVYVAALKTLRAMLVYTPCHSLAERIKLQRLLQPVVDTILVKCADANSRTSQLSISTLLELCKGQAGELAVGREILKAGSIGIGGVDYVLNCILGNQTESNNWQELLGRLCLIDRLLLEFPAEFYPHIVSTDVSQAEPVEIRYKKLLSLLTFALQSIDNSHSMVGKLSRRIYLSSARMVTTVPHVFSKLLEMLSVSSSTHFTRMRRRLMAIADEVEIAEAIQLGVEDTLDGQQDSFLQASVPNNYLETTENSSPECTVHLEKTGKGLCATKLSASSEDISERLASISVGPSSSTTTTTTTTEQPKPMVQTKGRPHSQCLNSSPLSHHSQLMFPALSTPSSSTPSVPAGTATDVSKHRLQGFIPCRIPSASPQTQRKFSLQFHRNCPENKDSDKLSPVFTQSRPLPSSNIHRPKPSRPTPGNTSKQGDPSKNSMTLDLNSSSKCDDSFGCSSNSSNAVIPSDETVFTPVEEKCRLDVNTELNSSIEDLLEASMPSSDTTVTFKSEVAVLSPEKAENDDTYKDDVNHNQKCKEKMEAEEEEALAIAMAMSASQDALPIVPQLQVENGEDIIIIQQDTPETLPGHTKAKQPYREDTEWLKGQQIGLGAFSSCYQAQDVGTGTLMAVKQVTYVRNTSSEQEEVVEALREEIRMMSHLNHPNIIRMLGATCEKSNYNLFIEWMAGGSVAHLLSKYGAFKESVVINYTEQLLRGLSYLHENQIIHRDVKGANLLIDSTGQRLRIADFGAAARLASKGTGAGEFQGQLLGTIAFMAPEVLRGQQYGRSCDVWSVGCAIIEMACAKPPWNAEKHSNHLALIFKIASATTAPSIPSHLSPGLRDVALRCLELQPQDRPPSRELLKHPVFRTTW
Chain of protein kinases (human kinome) (Homo sapiens, UniProt Q8TDR2) (Q8TDR2 whole entry): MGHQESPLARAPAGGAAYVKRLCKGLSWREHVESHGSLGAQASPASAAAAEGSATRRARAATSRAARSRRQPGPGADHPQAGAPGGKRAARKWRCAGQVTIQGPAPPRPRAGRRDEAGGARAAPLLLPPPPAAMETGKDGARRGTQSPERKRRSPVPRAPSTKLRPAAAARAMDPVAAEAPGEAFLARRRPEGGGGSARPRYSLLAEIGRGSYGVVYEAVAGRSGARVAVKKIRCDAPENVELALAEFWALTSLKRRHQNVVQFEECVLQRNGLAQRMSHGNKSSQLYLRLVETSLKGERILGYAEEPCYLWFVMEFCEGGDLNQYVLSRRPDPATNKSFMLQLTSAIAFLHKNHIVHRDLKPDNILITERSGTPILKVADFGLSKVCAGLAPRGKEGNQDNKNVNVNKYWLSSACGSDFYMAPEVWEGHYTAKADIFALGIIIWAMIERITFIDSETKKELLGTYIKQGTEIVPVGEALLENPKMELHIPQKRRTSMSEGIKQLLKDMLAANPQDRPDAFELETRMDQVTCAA
Chain of protein kinases (human kinome) (Homo sapiens, UniProt Q8NI60) (Q8NI60 163-647): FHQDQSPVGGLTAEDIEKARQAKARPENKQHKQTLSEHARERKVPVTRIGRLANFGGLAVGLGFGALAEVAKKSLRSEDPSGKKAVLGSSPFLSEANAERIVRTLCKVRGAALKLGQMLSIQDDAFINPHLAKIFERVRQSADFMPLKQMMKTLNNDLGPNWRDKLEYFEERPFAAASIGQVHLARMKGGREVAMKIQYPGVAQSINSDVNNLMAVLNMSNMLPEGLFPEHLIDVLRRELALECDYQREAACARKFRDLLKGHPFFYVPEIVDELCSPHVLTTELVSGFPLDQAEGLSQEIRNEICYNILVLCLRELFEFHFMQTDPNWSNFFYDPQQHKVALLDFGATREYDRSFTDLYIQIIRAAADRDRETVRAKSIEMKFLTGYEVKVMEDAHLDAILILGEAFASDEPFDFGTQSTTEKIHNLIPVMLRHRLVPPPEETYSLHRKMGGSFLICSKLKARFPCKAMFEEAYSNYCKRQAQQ
Chain of protein kinases (human kinome) (Homo sapiens, UniProt Q9HBH9) (Q9HBH9 whole entry): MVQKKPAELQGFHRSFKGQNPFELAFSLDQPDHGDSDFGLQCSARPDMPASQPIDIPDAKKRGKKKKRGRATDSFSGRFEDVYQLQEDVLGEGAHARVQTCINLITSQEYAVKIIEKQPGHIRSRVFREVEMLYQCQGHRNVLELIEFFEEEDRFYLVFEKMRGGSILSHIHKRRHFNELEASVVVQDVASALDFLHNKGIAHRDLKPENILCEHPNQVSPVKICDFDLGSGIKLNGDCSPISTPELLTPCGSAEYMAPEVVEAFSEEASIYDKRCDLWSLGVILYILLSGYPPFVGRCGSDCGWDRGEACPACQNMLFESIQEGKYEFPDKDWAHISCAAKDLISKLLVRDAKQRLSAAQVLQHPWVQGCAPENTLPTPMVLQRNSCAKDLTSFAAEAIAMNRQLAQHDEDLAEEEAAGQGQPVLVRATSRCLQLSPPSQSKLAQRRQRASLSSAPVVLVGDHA

Row | Structure (SMILES) | logFC STK35 [3, 8] | logFC STK35 [3, 9] | logFC UHMK1 [4, 10] | logFC UHMK1 [4, 11] | logFC ([1]; experiment wp076) | logFC STK17A ([1]; experiment wp076) | logFC MAP3K1 [5, 12] | logFC MAP3K1 [5, 13] | logFC TTK [6] | logFC TTK (P33981) [6] | also measured
1 | CC(C)S(=O)(=O)c1ccccc1Nc1nc(Nc2ccc(N3CCN(CCOCCOCCNC(=O)CNc4cccc5c4C(=O)N(C4CCC(=O)NC4=O)C5=O)CC3)cc2)ncc1Cl (centres unmarked) [TL12.186] | −0.4135 | −0.4135 | – | – | – | – | – | – | – | – | logFC ([1]; experiment wp137): −0.5054; logFC STK17A ([1]; experiment wp137): −0.5054; logFC COQ8A (Q8N160-1) [2]: −0.4564; logFC COQ8A (Q8NI60-1) [2]: −0.4564; logFC STK35 ([3]; Accession Q8TDR2, experiment wp137, direction down): −0.4079; logFC STK35 ([3]; STK35 (Q8TDR2), experiment wp137): −0.4079
2 | O=C1CCC(N2C(=O)c3cccc(NCCCCCCCCN4CCC(NC(=O)c5[nH]ncc5NC(=O)c5c(Cl)cccc5Cl)CC4)c3C2=O)C(=O)N1 (centres unmarked) [MFH.5.126.1] | – | – | −0.4789 | −0.4789 | −0.8984 | −0.8984 | −0.5947 | −0.5947 | −0.4412 | −0.4412 | –
3 | CCc1cnn2c(N(Cc3ccc(N)nc3)C(=O)CCOCCOCCOCCNC(=O)CNc3cccc4c3C(=O)N(C3CCC(=O)NC3=O)C4=O)cc(N3CCCC[C@H]3CCO)nc12 (some centres unmarked) [MFH.5.115.2] | – | – | −0.8774 | −0.8774 | −0.6277 | −0.6277 | −0.3528 | −0.3528 | −0.3249 | −0.3249 | –
4 | Cc1ncsc1-c1ccc([C@H](C)NC(=O)[C@@H]2C[C@@H](O)CN2C(=O)[C@@H](NC(=O)CCOCCOCCN2CCN(c3ccc(Nc4ncc(Cl)c(Nc5ccccc5S(=O)(=O)C(C)C)n4)cc3)CC2)C(C)(C)C)cc1 [FMF.06.098.1] | −0.656 | −0.656 | – | – | – | – | – | – | – | – | logFC UHMK1 ([4]; Accession Q8TAS1, experiment wp108, direction down): −0.3878; logFC UHMK1 ([4]; UHMK1 (Q8TAS1), experiment wp108): −0.3878; logFC STK35 ([3]; Accession Q8TDR2, experiment wp108, direction down): −0.6029; logFC STK35 ([3]; Accession Q8TDR2, experiment wp114, direction down): −0.5116; logFC STK35 ([3]; STK35 (Q8TDR2), experiment wp108): −0.6029; logFC STK35 ([3]; STK35 (Q8TDR2), experiment wp114): −0.5116
5 | Cc1ccc(NC(=O)c2cccc(C(F)(F)F)c2)cc1N1Cc2cnc(Nc3ccc(N4CCN(CCCOc5cccc6c5C(=O)N(C5CCC(=O)NC5=O)C6=O)CC4)nc3)nc2N(C)C1=O (centres unmarked) [DB0662] | – | – | – | – | – | – | – | – | – | – | logFC UHMK1 ([4]; Accession Q8TAS1, experiment wp168, direction down): −0.3949; logFC UHMK1 ([4]; UHMK1 (Q8TAS1), experiment wp168): −0.3949; logFC MAP3K1 ([5]; Accession Q13233, experiment wp168, direction down): −0.7087; logFC MAP3K1 ([5]; MAP3K1 (Q13233), experiment wp168): −0.7087; logFC MKNK2 (Q9HBH9-1) ([7]; Experiment wp168, direction down): −0.4185; logFC ([7]; MKNK2 (Q9HBH9-1), experiment wp168): −0.4185
